In US10040788B2, “1,3,4-thiadiazole compounds and their use in treating cancer” (AstraZeneca AB, priority 2014, dated 2018):
pIC50: −log10 of the molar value.

Key:
[1] = tested on: NCI-H1703 cells; test: GLS Cell Proliferation Assay (NCI-H1703); format: cell-based, human; conditions: Homo sapiens, 120 h; NCI-H1703 cells, 5 days incubation; geometric mean where repeated; read-out: Assay c) GLS Cell Proliferation Assay
[2] = tested on: NCI-H3122 xenograft; test: Mouse Xenograft Model, monotherapy (NCI-H3122); format: in vivo; conditions: Female Harlan Nude mice, NCI-H3122 s.c., 50 mg/kg once daily peroral for 17 days
Method: Female Harlan Nude mice were transplanted s.c. with human NSCLC NCI-H3122 cells to determine the in-vivo anti-tumour activity of GLS inhibitors. 5×10^6 cells in 50% matrigel (BD Bioscience) were injected s.c. on the left flank of the animals. Animals were randomised into groups of 10-15 when tumours reached a volume of ˜200-300 mm^3 and treatment commenced. […] Tumours were measured twice weekly by calliper and volume of tumours calculated using elliptical formula (π/6×width×width×length). Statistical significance was evaluated using a one tailed, t-test. Example 2 was formulated in a 1% Polysorbate 80 and pH adjusted with 1M HCL to a final pH concentration of pH3.5. Data is presented as mean tumour volume with calculated mean standard error bars.

[3] = tested on: NCI-H1703 xenograft; test: Mouse Xenograft Model, combination therapy (NCI-H1703); format: in vivo; conditions: Male Scid mice, NCI-H1703 s.c.
Method: Male Scid mice were transplanted s.c. with human NSCLC NCI-H1703 cells (ATCC-CRL-5889) to determine the in-vivo anti-tumour activity of GLS inhibitors. 1×10^7 cells in 50% matrigel (BD Bioscience) were injected s.c. on the left flank of the animals.
Animals were randomised into groups of 10-12 when tumours reached a volume of ˜200-300 mm^3 and treatment commenced. […] Tumours were measured twice weekly by calliper and volume of tumours calculated using elliptical formula (π/6×width×width×length). Statistical significance was evaluated using a one tailed, t-test. Taxotere® (Sanofi) was formulated in a physiological saline. Example 2 was formulated in a 1% Polysorbate 80 and pH adjusted with 1M HCL to a final pH concentration of pH3.5. Data is presented as mean tumour volume with calculated mean standard error bars.

- pIC50 [1]: 8.31
Structure (SMILES): CO[C@H](C(=O)Nc1nnc(N[C@@H]2CCN(c3cccnn3)C2)s1)c1ccccc1 [Example 2(a), (2S)-2-Methoxy-2-phenyl-N-[5-[[(3R)-1-pyridazin-3-ylpyrrolidin-3-yl]amino]-1,3,4-thiadiazol-2-yl]acetamide]
- Tumour growth (mean tumour volume), FIG. 2 [2]: inhibition of growth in-vivo
- Tumour growth (mean tumour volume), FIG. 3 ([3]; 100 mg/kg once daily peroral for 16 days in combination with once weekly i.v. Taxotere, compared to Taxotere monotherapy): slight regression
- Tumour growth (mean tumour volume), FIG. 3 ([3]; 100 mg/kg once daily peroral for 16 days, monotherapy): inhibition of growth in-vivo
